Assay type in all cases: in vivo
What all share (conditions): 250 g/ha, evaluated after 13 days

The test system of assay [1] is Echinochloa crus-galli (ECHCG). In words: Post-emergence Test, glasshouse, ECHCG. The gist of the method:
(§1)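 Percent plant damage was rated 13 days after treatment on a five-point scale (1 = 0–20% up to 5 = 81–100%). Compound was sprayed at 250 g/ha in acetone/water with 0.5% Tween 20, either one day post-sowing or on 8-day-old plants. Plants were grown at 24/16 °C day/night, 14 h light, 65% humidity.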

Assay [2] deals with ABUTH. In words: Post-emergence Test, glasshouse, ABUTH. In short, it runs like this:
as §1

The subject of assay [3] is Amaranthus retoflexus (AMARE). In words: Post-emergence Test, glasshouse, AMARE. The gist of the method:
as §1

The test system of assay [4] is Setaria faberi (SETFA). In words: Pre-emergence Test, glasshouse, SETFA. In short, it runs like this: as §1
In assay [5] the test system is IPOHE. In words: Post-emergence Test, glasshouse, IPOHE. In short, it runs like this:
as §1

The subject of assay [6] is IPOHE. In words: Pre-emergence Test, glasshouse, IPOHE. In short, it runs like this:
as §1

Assay [7] relates to ABUTH. In words: Pre-emergence Test, glasshouse, ABUTH. In short, it runs like this: as §1
The test system of assay [8] is Setaria faberi (SETFA). In words: Post-emergence Test, glasshouse, SETFA. In short, it runs like this: as §1
For assay [9], the system named is Amaranthus retoflexus (AMARE). In words: Pre-emergence Test, glasshouse, AMARE. In short, it runs like this: as §1
The subject of assay [10] is Echinochloa crus-galli (ECHCG). In words: Pre-emergence Test, glasshouse, ECHCG. The gist of the method:
as §1

For the compound `FC(F)(F)CCCn1ncc2ccc(Br)c(Oc3ncc(Cl)cn3)c21` [Compound 1.036], the “percentage damage caused to the plant, five-point scale, ECHCG” value (from here on “percentage damage caused … ECHCG”) in assay [1] and in assay [10] was 1 (1=0-20%) throughout. Besides, the “percentage damage caused to the plant, five-point scale, ABUTH” value (“percentage damage caused … ABUTH” for short) in [2] and in [7] was 1 (1=0-20%) in each case. Also, the “percentage damage caused to the plant, five-point scale, AMARE” value (“percentage damage caused … AMARE” for short) in assay [3] and in assay [9] was 1 (1=0-20%) in each case. The “percentage damage caused to the plant, five-point scale, SETFA” value (“percentage damage caused … SETFA” for short) in assay [4] and in assay [8] was 1 (1=0-20%) each time. Further, the “percentage damage caused to the plant, five-point scale, IPOHE” value (“percentage damage caused … IPOHE” for short) in assay [5] and in assay [6] was 1 (1=0-20%) throughout.

As for `C=CCCn1nc(Cl)c2cccc(Oc3ncc(Cl)cn3)c21` [Compound 1.054], the figures for the “percentage damage caused … ECHCG” value in assay [1] and in assay [10] were 3 (3=41-60%) and 4 (4=61-80%), respectively. For the same compound, the results for the “percentage damage caused … ABUTH” value in assay [2] and in assay [7] were 4 (4=61-80%) and 1 (1=0-20%), respectively. The “percentage damage caused … AMARE” value in assay [3] and in assay [9] was 4 (4=61-80%) in each case. Moreover, the entries for the “percentage damage caused … SETFA” value in assay [4] and in [8] were 5 (5=81-100%) and 2 (2=21-40%), respectively. Further, the entries for the “percentage damage caused … IPOHE” value in [5] and in [6] were 2 (2=21-40%) and 1 (1=0-20%), respectively.

In the case of `Cl/C=C/Cn1nc(Cl)c2cccc(Oc3ncc(Cl)cn3)c21` [Compound 1.069], the “percentage damage caused … ECHCG” value in [1] and in assay [10] was 3 (3=41-60%) throughout. Besides, the “percentage damage caused … ABUTH” value is 4 (4=61-80%) in [2] and 2 (2=21-40%) in [7]. Further, the “percentage damage caused … AMARE” value in assay [3] is listed as 5 (5=81-100%); in [9] it was 3 (3=41-60%). The “percentage damage caused … SETFA” value in assay [4] is recorded as 5 (5=81-100%); in assay [8] it was 2 (2=21-40%). In addition, the “percentage damage caused … IPOHE” value in assay [5] was 2 (2=21-40%); in assay [6], 1 (1=0-20%).

Take `N#Cc1ccc2cnn(CCCC(F)(F)F)c2c1Oc1ncc(Cl)cn1` [Compound 1.046]: the “percentage damage caused … ECHCG” value in [1] and in assay [10] was 1 (1=0-20%) throughout. The “percentage damage caused … ABUTH” value in [2] and in assay [7] was 2 (2=21-40%) in each case. Also, the “percentage damage caused … AMARE” value is on record as 2 (2=21-40%) in [3] and 1 (1=0-20%) in assay [9]. Also, the “percentage damage caused … SETFA” value in assay [4] and in [8] was 1 (1=0-20%) throughout. The “percentage damage caused … IPOHE” value in assay [5] and in [6] was 1 (1=0-20%) in each case.

On to `FC(F)(F)CCCn1nc(Cl)c2cc(Br)cc(Oc3ncc(Cl)cn3)c21` [Compound 1.010, 5-bromo-3-chloro-7-(5-chloropyrimidin-2-yl)oxy-1-(4,4,4-trifluorobutyl)indazole], for which the “percentage damage caused … ECHCG” value in assay [1] and in [10] was 2 (2=21-40%) in each case. Besides, the “percentage damage caused … ABUTH” value in assay [2] and in [7] was 1 (1=0-20%) each time. For the same compound, the “percentage damage caused … AMARE” value in assay [3] and in assay [9] was 4 (4=61-80%) in each case. In addition, the “percentage damage caused … SETFA” value in assay [4] and in assay [8] was 2 (2=21-40%) throughout. For the same compound, the “percentage damage caused … IPOHE” value in assay [5] and in assay [6] was 1 (1=0-20%) each time.

As for `Cc1ccc2cnn(CCCC(F)(F)F)c2c1Oc1ncc(Cl)cn1` [Compound 1.044], the entries for the “percentage damage caused … ECHCG” value in assay [1] and in assay [10] were 1 (1=0-20%) and 3 (3=41-60%), respectively. The “percentage damage caused … ABUTH” value in assay [2] and in [7] was 1 (1=0-20%) throughout. Also, the figures for the “percentage damage caused … AMARE” value in assay [3] and in assay [9] were 1 (1=0-20%) and 2 (2=21-40%), respectively. Besides, the “percentage damage caused … SETFA” value is 3 (3=41-60%) in assay [4] and 1 (1=0-20%) in [8]. The “percentage damage caused … IPOHE” value in [5] and in [6] was 1 (1=0-20%) in each case.

As to `CC(C)CCn1nc(Cl)c2cccc(Oc3ncc(Cl)cn3)c21` [Compound 1.056], the “percentage damage caused … ECHCG” value is given as 2 (2=21-40%) in assay [1] and 3 (3=41-60%) in assay [10]. The “percentage damage caused … ABUTH” value in [2] was 3 (3=41-60%); in [7], 1 (1=0-20%). Further, the “percentage damage caused … AMARE” value in [3] and in [9] was 4 (4=61-80%) throughout. The “percentage damage caused … SETFA” value is 4 (4=61-80%) in [4] and 2 (2=21-40%) in assay [8]. The “percentage damage caused … IPOHE” value in assay [5] is listed as 3 (3=41-60%); in assay [6], 1 (1=0-20%).

On to `Cc1ccc2c(Cl)nn(CCCC(F)(F)F)c2c1Oc1ncc(Cl)cn1` [Compound 1.043, 3-chloro-7-(5-chloropyrimidin-2-yl)oxy-6-methyl-1-(4,4,4-trifluorobutyl)indazole], for which the “percentage damage caused … ECHCG” value in assay [1] and in assay [10] was 3 (3=41-60%) throughout. Also, the “percentage damage caused … ABUTH” value is given as 3 (3=41-60%) in assay [2] and 1 (1=0-20%) in assay [7]. The results for the “percentage damage caused … AMARE” value in [3] and in assay [9] were 4 (4=61-80%) and 5 (5=81-100%), respectively. The “percentage damage caused … SETFA” value in assay [4] was 4 (4=61-80%); in [8] it was 3 (3=41-60%). In addition, the “percentage damage caused … IPOHE” value in assay [5] was 4 (4=61-80%); in [6], 1 (1=0-20%).

For `Fc1cnc(Oc2cccc3c(Cl)nn(CCCC(F)(F)F)c23)nc1` [Compound 1.047], the “percentage damage caused … ECHCG” value in assay [1] and in assay [10] was 5 (5=81-100%) each time. Also, the “percentage damage caused … ABUTH” value in assay [2] and in assay [7] was 5 (5=81-100%) throughout. Further, the “percentage damage caused … AMARE” value in assay [3] and in assay [9] was 5 (5=81-100%) each time. Besides, the “percentage damage caused … SETFA” value in [4] is recorded as 5 (5=81-100%); in [8], 4 (4=61-80%). The “percentage damage caused … IPOHE” value in assay [5] is given as 5 (5=81-100%); in [6], 3 (3=41-60%).

For `FC(F)(F)OCCn1nc(Cl)c2cccc(Oc3ncc(Cl)cn3)c21` [Compound 1.052], the “percentage damage caused … ECHCG” value in assay [1] and in assay [10] was 4 (4=61-80%) each time. For the same compound, the “percentage damage caused … ABUTH” value in assay [2] was 5 (5=81-100%); in assay [7], 3 (3=41-60%). Besides, the “percentage damage caused … AMARE” value in assay [3] and in assay [9] was 5 (5=81-100%) throughout. Also, the “percentage damage caused … SETFA” value in assay [4] is given as 5 (5=81-100%); in assay [8] it was 3 (3=41-60%). Moreover, the figures for the “percentage damage caused … IPOHE” value in assay [5] and in assay [6] were 3 (3=41-60%) and 1 (1=0-20%), respectively.

With `C=C(C)Cn1nc(Cl)c2cccc(Oc3ncc(Cl)cn3)c21` [Compound 1.064], the “percentage damage caused … ECHCG” value in assay [1] and in assay [10] was 1 (1=0-20%) in each case. Also, the “percentage damage caused … ABUTH” value in assay [2] is recorded as 2 (2=21-40%); in assay [7], 1 (1=0-20%). The “percentage damage caused … AMARE” value is 2 (2=21-40%) in [3] and 1 (1=0-20%) in assay [9]. Also, the “percentage damage caused … SETFA” value in assay [4] and in assay [8] was 1 (1=0-20%) in each case. The “percentage damage caused … IPOHE” value in assay [5] and in assay [6] was 1 (1=0-20%) each time.
